Data set [1] in a line: Pharmacokinetics of MJC13 (Formulation PT4) after IV bolus in rats, three-compartment model. The conditions noted are these: single IV bolus 2 mg/kg, Formulation PT4, n = 8; for half-life / Vd: iv, 2 mg/kg. The data set is classed as in vivo, Sprague-Dawley rats. How it is done:
To further determine the fate of MJC13 in live animals and verify the applicability of the developed LC/MS/MS assay and formulations, pharmacokinetic studies were performed in rats. The animal experiment and protocol were reviewed and approved by the Institutional Animal Care and Use Committee at Texas Southern University. The jugular veins of eight male adult Sprague-Dawley rats (358˜377 g) were cannulated under anesthesia using a cocktail of ketamine:acetopromazine:xylazine (50:3.3:3.3 mg/kg) the day before the study. On the day of study, Formulation PT4, which includes PEG 400 and Tween 80 (1:1, v/v) with a MJC13 concentration of 7.5 mg/mL, was diluted to 1 mg/mL by normal saline. Blood and urine samples were collected from each rat right before dosing. Each rat was given a 2 mg/kg intravenous (IV) bolus dose of MJC13. Blood sample collecting tubes were heparinized and dried. In order to avoid any possible contamination, after dosing for each rat, the foremost part of each tubing associated with the needle for dosing was cut off, and then 0.5 mL of normal saline containing 20 U/mL heparin was injected to flush the tubing. Blood samples (250 μL; n=8) were collected at 5, 10, 15, 30 minutes, 1, 2, 4, 6, 8, 12, 24, 48 and 72 hours post injection, respectively. The blood samples were centrifuged at 13,000 rpm for 10 minutes and the supernatants (plasma) were obtained and immediately stored at −80° C. until analysis. Urine samples (n=4) were collected periodically, including 0-2, 2-4, 4-8, 8-12, 12-24, 24-48 and 48-72 hours post injection. After measurement of the overall urinary volume of each interval, urine samples were immediately stored at −80° C. until analysis. Within 48 hours, those plasma and urine samples were analyzed by the LC/MS/MS method of Example 1 to obtain MJC13 concentrations. After analysis, the plasma concentrations and cumulative urinary excretions of MJC13 were presented as the mean value with standard deviation (SD) and plotted against time by SigmaPlot 12.3 (Systat Software, San Jose, Calif.). (FIGS. 5, 6, 7A, and 7B).
The intravenous drug plasma concentration-time data were pharmacokinetically analyzed separately for each rat by compartmental modeling using the microcomputer-based nonlinear regression program, WINNONLIN software 5.2.1 (Pharsight Corporation, Mountain View, Calif.). A three-compartment model was provided which best described the fit for the IV bolus administration based on the appearance of the observed and predicted concentrations, the reduction in the sums of squares, and the Akaike's information criterion (Yamaoka et al., J. Pharmacokinet Biopharm., 6(2): 165-75 (1978)). The three-compartment model is described by Eq. 5:
Ct=A·e^−αt+B·e^−βt+C·e^−γt, Eq. 5
where A, B and C are the coefficients, α is the α-phase hybrid rate constant, β is β-phase hybrid rate constant, γ is the γ-phase hybrid rate constant, and Ct is the plasma concentration of MJC13 at time t. The pharmacokinetic parameters thus derived were the systemic or plasma clearance (Cl), the volume of distribution (Vd), the total area under the plasma drug concentration-time curve (AUC), and half-lives (T1/2).

Data set [2] can be described thus: Lipophilicity (log P) between water and 1-octanol, shake-flask. The data set is classed as physicochemical. The conditions noted are these: 1-octanol/water, room temperature, read-out: experimental log P. The protocol:
The lipophilicity of MJC13 was determined as the logarithm of partition coefficient (log P) of the solute between water and 1-octanol. Equal volumes of two-phase solution (water and 1-octanol) was mixed well in a capped glass bottle and then placed in a shaker for 24 hours to make sure that saturation equilibrium had been achieved. MJC13 (1 mL) dissolved in the two-phase solution was added the bottle. Then, MJC13 was partitioned between aqueous and 1-octanol for 72 hours at room temperature using the shake-flask method. The mixture from the bottle was centrifuged at 3000 rpm for 10 minutes and subsequently filtered through a 0.22 μm ultrafiltration unit, and then moved to a separatory funnel for phase separation. The aqueous and 1-octanol phases were analyzed by LC-MS/MS to determine the concentration of drug dissolved. Experiments were conducted in triplicate. The log P was calculated according to Eq. 3: […]
where Co and Cw represent the concentrations of MJC13 in 1-octanol and aqueous phase, respectively.

A short description of data set [3]: Rat plasma protein binding by ultrafiltration. The data set is classed as in vitro ADME. Conditions: 37° C. How it is done: In vitro rat plasma samples of MJC13 were prepared by diluting the stock solution with acetonitrile and spiking in rat plasma at five different concentrations: 100, 500, 1000, 2000 and 5000 ng/mL to approximate the plasma concentrations of MJC13 in rats after 2 mg/kg intravenous bolus dosing. The plasma was incubated at 37° C. for 1 hours before being transferred to Amicon Ultra-0.5 mL Centrifugal Filters (EMD Millipore Corporation, Billerica, Mass.) for ultrafiltration at 3000 rpm for 10 minutes. Filtrate and nonfiltrate concentrations were determined by LC-MS/MS. The fraction unbound, fu, was determined as Eq. 4:
where Cu is the unbound concentration and Ct is the total concentration.

Data set [4] is described as follows: Freeze-thaw stability of MJC13 in rat plasma and rat urine. The data set is classed as in vitro ADME. How it is done:
Freeze-thaw stability of MJC13 in rat plasma and rat urine were evaluated by analyzing QC samples at low, medium, and high concentrations. Plasma samples that were exposed for three cycles of freezing (at −20° C.) and thawing (at room temperature) were compared with freshly prepared samples at the same concentrations.
The stability of MJC13 in rat urine was conducted in the same fashion as in rat plasma.

Read-outs that look alike come from different tables or passages of the source.

Turning to `O=C(Nc1cccc(Cl)c1Cl)C1CCCCC1` [MJC13], in data set [1] (male, Sprague-Dawley, plasma, rat, read-out: Cl (total body clearance)), the clearance came to 6.04 ± 2.43 mL/min/kg. The half-life in data set [1] (male, Sprague-Dawley, rat, plasma, rat plasma, read-out: T1/2α (elimination half-life of α-phase)) is 0.094 ± 0.0217 h; in data set [1] (male, Sprague-Dawley, rat, plasma, rat plasma, read-out: T1/2β (elimination half-life of β-phase)), 2.1 ± 0.317 h; in data set [1] (male, Sprague-Dawley, rat, plasma, rat plasma, read-out: T1/2γ (elimination half-life of γ-phase)), 32.3 ± 12.1 h. Besides, the Vd turned out to be 0.744 ± 0.074 L/kg in data set [1] (male, Sprague-Dawley, rat, plasma, rat, read-out: V1 (volume of distribution of central compartment)) and 10.8 ± 2.13 L/kg in data set [1] (male, Sprague-Dawley, rat, plasma, rat, read-out: Vss (volume of distribution at steady state)). Besides, in data set [1] (male, Sprague-Dawley, rat plasma, read-out: AUC0-∞ (area under curve from time zero to infinity) (converted)), the AUC(0-inf) is 6640 ng·h/mL. Further, the Cmax in data set [1] (male, Sprague-Dawley, rat plasma, read-out: Cmax (maximum concentration)) was determined as 2710 ± 251 ng/mL. Further, the “A (coefficient of α-phase)” value in data set [1] (rat plasma) is 2124 ± 222 ng/mL. Also, the “B (coefficient of β-phase)” value in data set [1] (rat plasma) is on record as over 483 ± 126 ng/mL. For the same compound, the “C (coefficient of γ-phase)” value in data set [1] (rat plasma) amounted to 101 ± 36 ng/mL. Besides, the “V2 (volume of distribution of first peripheral compartment)” value in data set [1] (rat) is 2.038 ± 0.646 L/kg. Besides, the “V3 (volume of distribution of second peripheral compartment)” value in data set [1] (rat) was found to be 8.068 ± 1.6 L/kg. For the same compound, in data set [2], the logP at 72 h was 6.49 ± 0.37. In addition, the fraction bound at 1 h, 100 ng/mL in data set [3] (100 ng/mL) was found to be 0.981 ± 0.015. The fraction bound at 1 h, 500 ng/mL in data set [3] (500 ng/mL) turned out to be 0.976 ± 0.027. Moreover, the fraction bound at 1 h, 1000 ng/mL in data set [3] (1000 ng/mL) is 0.996 ± 0.017. The fraction bound at 1 h, 2000 ng/mL in data set [3] (2000 ng/mL) came out at 0.972 ± 0.028. The compound also yielded a fraction bound at 1 h, 5000 ng/mL in data set [3] (5000 ng/mL) of 0.979 ± 0.024. For the same compound, the “average MJC13 amount remaining” value in data set [4] (rat plasma, three freeze (−20° C.)-thaw (room temperature) cycles) worked out at 96.7±2.0%; in data set [4] (rat urine, three freeze-thaw cycles) it was 97.5±2.4%.

For orientation: clearance means a measure of how efficiently the substance is removed, as volume per time.
